Laboratory results from patent US10254223B2, “Apparatus and methods for analysing fluorescent particles” (ChemoMetec A/S, priority 2008, dated 2019).

Assays:
Type in all cases: cell-based
Jurkat (JM) cells = experiment: Annexin V apoptosis assay (AlexaFluor 488-Annexin V, PI) with the claimed apparatus; details: 3 μM Camptothecin, three hours incubation
Description: Here the claimed apparatus is used in assay fluorescently labeled Annexin V to stain apoptotic and necrotic cells and PI to distinguish between the early and late apoptotic/necrotic cells. Jurkat (JM) cells were cultivated at 37° C. in a humidified air atmosphere with 5% CO2 in RPMI (Invitrogen, Cat. No. 61870) supplemented with 10% heat-inactivated fetal bovine serum (Invitrogen, Cat. No. 10108-165). 3 μM Camptothecin (Sigma, Cat. No. C-9911) was added to the cells in order to induce apoptosis. After three hours incubation (37° C., 5% CO2) cells were harvested in cold phosphate-buffered saline (PBS) and stained with AlexaFluor 488-labelled Annexin V from the Vybrant® Apoptosis Assay Kit #2 (Molecular probes, V13241) according to the manufacturer's protocol. The stained cells were loaded into a cassette containing propidium iodide. The cassette was placed in the claimed apparatus and the cells were counted and investigated using the claimed apparatus and in-house developed software. The cells were also investigated using an Olympus IX50 fluorescent microscope. Images were captured using a Lumenera CCD camera and in-house developed software. AF488 fluorescence was detected using a U-MWIBA3 (blue bandpass) filter cube (Olympus) and PI fluorescence was detected using a U-MWG2 (green longpass) filter cube (Olympus).

Jurkat cells [1] = experiment: Early apoptosis by mitochondrial membrane potential (JC-1 and DAPI staining); details: 10 μM campthotecin, 5 hours at 37° C.
Description: Loss of the mitochondrial membrane potential is known to precede apoptosis and chemical-hypoxia-induced necrosis. The lipophilic cationic dye JC-1 (5,5,6,6-tetrachloro-1,1,3,3-tetraethylbenzimidazol-carbocyanine iodide) display potential-dependent accumulation in the mitochondria and provides a simple, fluorescent-based method for distinguishing between healthy and apoptotic cells. In healthy cells, the negative charge established by the intact mitochondrial membrane potential facilitates the accumulation of JC-1 in the mitochondrial matrix. At high concentrations JC-1 forms aggregates and become red fluorescent. In apoptotic cells the mitochondrial potential collapses and JC-1 localizes to the cytosol in its monomeric green fluorescent form. A cell impermeable DNA stain (like DAPI) can be included to stain necrotic and late apoptotic cells. Jurkat cells were grown in RPMI+10% FCS to a density of 5.0×10^5 cells/ml and treated with 10 μM campthotecin (apoptosis inducing drug) for 5 hours. Cells were stained with 2.5 μg/ml JC-1 for 10 minutes at 37° C., washed with PBS, resuspended in PBS+1 μg/ml DAPI and analysed using the claimed apparatus.

Jurkat cells [2] = experiment: Annexin V apoptosis assay (AF594-annexin V, DACM, SYTOX green) with the claimed apparatus; details: 1 μM nocodazole, 16 hours; for annexin V positive cells (apoptotic cells): viable cells, nonviable cells gated out by SYTOX green
Description: Here the claimed apparatus is used in assaying fluorescently labelled annexin V to stain apoptotic and necrotic cells and SYTOX green to distinguish between the early and late apoptotic/necrotic cells. In addition DACM is used to stain all viable cells. Jurkat cells were cultivated at 37° C. in a humidified air atmosphere with 5% CO2 in RPMI (Invitrogen, Cat. No. 61870) supplemented with 10% heat-inactivated fetal bovine serum (Invitrogen, Cat. No. 10108-165). Cells were either treated with 1 μM nocodazole (Sigma, Cat. No. M1404) or left untreated. After 16 hours incubation (37° C., 5% CO2) cells were harvested in cold phosphate-buffered saline (PBS) and stained with AlexaFluor 594-labelled annexin V (Molecular probes, A-13203) according to the manufacturer's protocol. After annexin V staining all viable cells were co-stained using DACM (N-(7-dimethylamino-4-methyl-3-coumarinyl)-maleimide, WAKO Pure Chemical Industries, CAS no. 55145-14-7) and nonviable cells were stained with SYTOX green (Invitrogen, S7020). The stained cells were loaded into a NC-Slide. The NC-Slide was placed in the claimed apparatus and the cells were counted and investigated using the claimed apparatus and in-house developed software. The cells were also investigated using an Olympus IX50 fluorescent microscope. SYTOX green fluorescence was detected using a U-MWIBA3 (blue bandpass) filter cube (Olympus), the annexin V AF594 conjugate was detected using a U-MWG2 (green longpass) filter cube (Olympus) and DACM was detected using the U-MNUA2 (UV band pass) filter cube (Olympus).

CHO cells = experiment: Caspase based assay (SR-VAD-FMK poly-caspase FLICA, DACM, SYTOX green); details: 1 μM nocodazole, 16 hours
Description: Another caspase based apoptosis assay is the FLICAssay (Fluorochrome Inhibitor of Caspases Assay). This assay detects active caspases inside the cell using a caspase specific inhibitor sequence linked to a fluorescent probe. The non-cytotoxic caspase specific inhibitor is cell permeant and passes through the intact plasma membrane and covalently binds to the reactive cysteine residue on the large subunit of the active caspase heterodimer. […] Measuring the fluorescence thus gives a direct measure of the amount of active caspase in the whole living cell.
To quantify caspase activity by the FLICAssay, the cells to be investigated are incubated with the chosen caspase specific inhibitor sequence linked to a fluorescent probe. Cells are washed to remove unbound inhibitor and the fluorescence of the cells is determined using the claimed apparatus thereby making measurement of caspase activity on the single cell level possible. […]
CHO cells were cultivated in RPMI (Invitrogen, Cat. No. 61870) supplemented with 10% heat-inactivated fetal bovine serum (Invitrogen, Cat. No. 10108-165) at 37° C. in a humidified air atmosphere with 5% CO2. […] The NC-Slide was placed in the claimed apparatus and the cells were counted and investigated using the claimed apparatus and in-house developed software. […]

Compound	concentration of apoptotic cells (Annexin V conjugate binding cells) (Jurkat (JM) cells)	concentration of non-viable cells (PI) (Jurkat (JM) cells)	depolarized/apoptotic cells (JC-1) (Jurkat cells [1])	viability (DAPI positive cells counted) (Jurkat cells [1])	viability (Jurkat cells [2])	annexin V positive cells (apoptotic cells) (Jurkat cells [2])	annexin V positive cells (apoptotic cells) (Jurkat cells [2]; listed as Nocodazole)	cells exhibiting strong red fluorescence (caspase activity, apoptotic cells) versus untreated cells (CHO cells)
CC[C@@]1(O)C(=O)OCc2c1cc1n(c2=O)Cc2cc3ccccc3nc2-1 [Camptothecin]	2.6×10^5	4.5×10^4	60%	approximately 96%	–	–	–	–
COC(=O)Nc1nc2ccc(C(=O)c3cccs3)cc2[nH]1 [nocodazole]	–	–	–	–	almost not affected	more than 40%	~40%	Substantially more
